By inhibition is commonly meant the drop in the measured response relative to a control, in per cent.

T1 sequence (Q9UGL1 whole entry): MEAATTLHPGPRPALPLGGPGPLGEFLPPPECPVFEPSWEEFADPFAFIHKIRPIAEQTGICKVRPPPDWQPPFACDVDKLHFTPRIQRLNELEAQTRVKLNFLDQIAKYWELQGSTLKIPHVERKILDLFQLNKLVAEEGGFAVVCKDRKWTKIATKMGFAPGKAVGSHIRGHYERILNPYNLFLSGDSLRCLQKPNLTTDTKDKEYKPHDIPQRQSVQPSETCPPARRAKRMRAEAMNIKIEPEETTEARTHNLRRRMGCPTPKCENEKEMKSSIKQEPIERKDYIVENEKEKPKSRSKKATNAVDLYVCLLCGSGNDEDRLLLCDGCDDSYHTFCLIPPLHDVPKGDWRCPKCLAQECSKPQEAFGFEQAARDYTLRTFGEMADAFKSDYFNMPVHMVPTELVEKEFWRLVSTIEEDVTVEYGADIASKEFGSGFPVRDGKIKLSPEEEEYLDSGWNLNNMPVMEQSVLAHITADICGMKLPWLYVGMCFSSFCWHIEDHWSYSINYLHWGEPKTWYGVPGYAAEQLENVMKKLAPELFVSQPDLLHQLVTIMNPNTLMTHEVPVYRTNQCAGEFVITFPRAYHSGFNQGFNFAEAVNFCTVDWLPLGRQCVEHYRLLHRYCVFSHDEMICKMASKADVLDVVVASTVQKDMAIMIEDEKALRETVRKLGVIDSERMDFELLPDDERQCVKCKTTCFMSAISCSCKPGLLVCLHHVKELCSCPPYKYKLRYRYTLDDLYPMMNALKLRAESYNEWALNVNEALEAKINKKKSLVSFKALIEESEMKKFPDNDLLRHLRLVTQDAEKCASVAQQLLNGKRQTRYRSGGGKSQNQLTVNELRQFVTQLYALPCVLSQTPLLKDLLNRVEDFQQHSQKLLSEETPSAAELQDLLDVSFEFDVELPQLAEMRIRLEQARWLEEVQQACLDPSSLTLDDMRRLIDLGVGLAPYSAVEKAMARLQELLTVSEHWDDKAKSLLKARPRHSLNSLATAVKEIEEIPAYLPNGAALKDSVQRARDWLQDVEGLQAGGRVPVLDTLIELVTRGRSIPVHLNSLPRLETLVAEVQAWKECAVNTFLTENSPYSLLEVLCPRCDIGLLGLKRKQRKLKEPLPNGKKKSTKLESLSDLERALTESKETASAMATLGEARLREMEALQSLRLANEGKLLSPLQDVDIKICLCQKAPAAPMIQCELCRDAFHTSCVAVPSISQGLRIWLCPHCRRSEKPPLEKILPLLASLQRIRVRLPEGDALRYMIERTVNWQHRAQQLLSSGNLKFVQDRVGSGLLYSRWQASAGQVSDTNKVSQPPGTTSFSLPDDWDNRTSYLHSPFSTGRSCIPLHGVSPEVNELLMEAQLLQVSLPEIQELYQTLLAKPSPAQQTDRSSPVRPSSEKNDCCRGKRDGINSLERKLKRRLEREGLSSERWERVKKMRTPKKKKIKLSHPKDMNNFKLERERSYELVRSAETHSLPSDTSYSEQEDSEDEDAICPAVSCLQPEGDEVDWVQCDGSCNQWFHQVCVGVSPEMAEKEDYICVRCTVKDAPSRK

The experiment concerns the target T1, Recombinant human JARID1B/KDM5B (Homo sapiens, UniProt Q9UGL1).
T1 construct: purchased Active Motif 31432; host or cells: Sf9 insect cells
As to the kind of experiment: LANCE Ultra TR-FRET demethylase assay with FLAG-tagged JARID1B. As to conditions: 100 nM compound; 500 nM biotinylated H3K4me3 peptide substrate. It is filed as biochemical. The essentials:
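Sf9-expressed N-FLAG full-length JARID1B (10–30 nM) preincubated 5 min with compound at 20, 1 or 0.1 uM (1% DMSO), then 500 nM biotin-H3K4me3 peptide, 500 uM 2-OG, 25 uM Fe(II), 2 mM ascorbate added; 30 min at room temperature in Hepes pH 7.5. H3K4me2/1 product read by TR-FRET 665/590 ratio.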
For orientation: Time-resolved FRET reads energy transfer from a long-lived donor to a nearby acceptor.
With `O=c1[nH]c(C2CCc3ccccc3O2)nc2c(CNCC3CCNCC3)nccc12` (stereo not shown) [Example 199, 2-(chroman-2-yl)-8-(((piperidin-4-ylmethyl)amino)methyl)pyrido[3,4-d]pyrimidin-4(3H)-one], the inhibition at 0.1 µM was less than 20%.

As for `CN1CCC(CNCc2nccc3c(=O)[nH]c(C4CCc5ccccc5O4)nc23)CC1` (stereo not shown) [Example 200, 2-(chroman-2-yl)-8-((((1-methylpiperidin-4-yl)methyl)amino)methyl)pyrido[3,4-d]pyrimidin-4(3H)-one], the inhibition at 0.1 µM was 20 to 50%.

As for `CN1CCC(CNCc2nccc3c(=O)[nH]c(C4Cc5ccccc5C4)nc23)CC1` [Example 201, 2-(2,3-dihydro-1H-inden-2-yl)-8-((((1-methylpiperidin-4-yl)methyl)amino)methyl)pyrido[3,4-d]pyrimidin-4(3H)-one], the inhibition at 0.1 µM is less than 20%.

With `O=c1[nH]c(COCc2ccccc2)nc2c(CNCC3CCNCC3)nccc12` [Example 202, 2-((benzyloxy)methyl)-8-(((piperidin-4-ylmethyl)amino)methyl)pyrido[3,4-d]pyrimidin-4(3H)-one], the inhibition at 0.1 µM was in the range of 20 to 50%.

Consider `CN1CCC(CNCc2nccc3c(=O)[nH]c(COCc4ccccc4)nc23)CC1` [Example 203, 2-((benzyloxy)methyl)-8-((((1-methylpiperidin-4-yl)methyl)amino)methyl)pyrido[3,4-d]pyrimidin-4(3H)-one], for which the inhibition at 0.1 µM is more than 50%.

Regarding `O=c1[nH]c(COCc2ccccc2)nc2c(CNC[C@H]3CCNC3)nccc12` [Example 204, (S)-2-((benzyloxy)methyl)-8-(((pyrrolidin-3-ylmethyl)amino)methyl)pyrido[3,4-d]pyrimidin-4(3H)-one], the inhibition at 0.1 µM was 20 to 50%.

For `CN1CCC(CNCc2nccc3c(=O)[nH]c(COCc4ccccc4)nc23)C1` (stereo not shown) [Example 205, 2-((benzyloxy)methyl)-8-((((1-methylpyrrolidin-3-yl)methyl)amino)methyl)pyrido[3,4-d]pyrimidin-4(3H)-one], the inhibition at 0.1 µM lay in the range of 20 to 50%.

As to `O=c1[nH]c(COCc2cccc(Cl)c2)nc2c(CNCC3CCNCC3)nccc12` [Example 206, 2-(((3-chlorobenzyl)oxy)methyl)-8-(((piperidin-4-ylmethyl)amino)methyl)pyrido[3,4-d]pyrimidin-4(3H)-one], the inhibition at 0.1 µM was more than 50%.

Turning to `CN1CCC(CNCc2nccc3c(=O)[nH]c(COCc4cccc(Cl)c4)nc23)CC1` [Example 207, 2-(((3-chlorobenzyl)oxy)methyl)-8-((((1-methylpiperidin-4-yl)methyl)amino)methyl)pyrido[3,4-d]pyrimidin-4(3H)-one], the inhibition at 0.1 µM was more than 50%.

In the case of `O=c1[nH]c(COCc2cccc(Cl)c2)nc2c(CNC[C@H]3CCNC3)nccc12` [Example 208, (S)-2-(((3-chlorobenzyl)oxy)methyl)-8-(((pyrrolidin-3-ylmethyl)amino)methyl)pyrido[3,4-d]pyrimidin-4(3H)-one], the inhibition at 0.1 µM was more than 50%.

Turning to `O=c1[nH]c(COCc2ccccc2Cl)nc2c(CNCC3CCNCC3)nccc12` [Example 209, 2-(((2-chlorobenzyl)oxy)methyl)-8-(((piperidin-4-ylmethyl)amino)methyl)pyrido[3,4-d]pyrimidin-4(3H)-one], the inhibition at 0.1 µM is more than 50%.

As for `CN1CCC(CNCc2nccc3c(=O)[nH]c(COCc4ccccc4Cl)nc23)CC1` [Example 210, 2-(((2-chlorobenzyl)oxy)methyl)-8-((((1-methylpiperidin-4-yl)methyl)amino)methyl)pyrido[3,4-d]pyrimidin-4(3H)-one], the inhibition at 0.1 µM was more than 50%.

On to `CC(Oc1ccc(Cc2ccccc2)cc1)c1nc2c(CNCC3CCN(C)CC3)nccc2c(=O)[nH]1` (stereo not shown) [Example 211, 2-(1-(4-benzylphenoxy)ethyl)-8-((((1-methylpiperidin-4-yl)methyl)amino)methyl)pyrido[3,4-d]pyrimidin-4(3H)-one], for which the inhibition at 0.1 µM was less than 20%.

For the origin of these results see patent US9834550B2, “Pyridopyrimidinone compounds for modulating the catalytic activity of histone lysine demethylases (KDMs)” (Dong-A Socio Holdings Co., Ltd., priority 2014, dated 2017).
